Structures can show the parent of a compound that is named as a salt.
Experiments:
Katzen = assay: Blood pressure in the anaesthetised cat (femoral artery), i.v. administration; type: in vivo; conditions: Katze, Dosis 3 mg/kg
Protocol: 1. Blutdruck an der Katze: Katzen beiderlei Geschlechts von 3 bis 4 kg Gewicht wurden mit Äther narkotisiert und unter Chloralose-Narkose (70 mg/kg, i.v.) gehalten. Sowohl die Oberschenkelarterie als auch -vene wurden zur Aufzeichnung des Blutdrucks und zur Verabreichung von Medikamenten kanüliert. Der Blutdruck in der Oberschenkelarterie wurde über einen Messwandler Statham 23 Db auf einem physiologischen Nihon-Kohden-Registriergerät aufgezeichnet. Die zu prüfende Verbindung wurde in destilliertem Wasser gelöst und intravenös verabreicht, und der Blutdruckabfall und die Dauer der blutdrucksenkenden Wirkung wurden notiert.
Die mit diesem Modell für typische erfindungsgemäße Verbindungen erhaltenen Resultate sind in der nachfolgenden Tabelle angegeben: […]

Beagle-Hunde = assay: Blood pressure, heart rate and left ventricular dp/dt in the anaesthetised beagle dog, i.v. administration; type: in vivo; conditions: Hund; for Blutdruckabfall: Natriumpentobarbital; for % Zunahme in dp/dt max: left ventricle
Protocol: 2. Blutdruck am Hund: Methode: Beagle-Hunde beiderlei Geschlechts (Gewicht im Bereich 10 bis 15 kg) wurden mit Natriumpentobarbital narkotisiert (35 mg/kg, i.v.). Nach Einführung eines Endotrachealrohrs wurden sowohl die Oberschenkelarterie als auch die -vene zur Aufnahme des Blutdrucks und zur Verabreichung der Verbindung kanüliert. Der Druck im linken Ventrikel wurde mit einem Katheterspitzen-Messwandler (Millar-Kathether) gemessen und über einen Hugo Sachs-Differentiator differenziert. Sämtliche Methoden wurden auf einem Hellige-Schreibgerät mit sechs Kanälen aufgezeichnet. Die Elektrokardiogrammsignale wurden auf einem Becton-Dickinson-Gerät verfolgt.
Eine einprozentige Lösung der erfindungsgemäßen Verbindung in destilliertem Wasser wurde hergestellt und in verschiedenen Dosierungen intravenös verabreicht.

For `C=CC1(C)CC(=O)C2(O)C(C)(O1)C(OC(=O)CC)C(OC(=O)CN1CCCCC1)C1C(C)(C)CCC(O)C12C` (stereo not drawn) [C2H5, 1α,9α-Dihydroxy-8,13-epoxy-6ß-piperidino acetoxy-7ß-propionyloxy-labd-14-en-11-on hydrochlorid], the Blutdruckabfall (Katzen; Chloralose-Narkose) was 30 mm Hg, the Dauer (Katzen; duration of hypotensive effect) was > 120 min and the Dauer (Beagle-Hunde; Dosis 0.3 mg/kg) was 10 min. For the same compound, the Dauer (Beagle-Hunde; Dosis 1.0 mg/kg) was 60 min, the Pulszunahme (Beagle-Hunde; Dosis 1.0 mg/kg) was “+19 Pulsschläge pro Min” and the Blutdruckabfall (Beagle-Hunde; Dosis 0.3 mg/kg) was 10 mm Hg. The Blutdruckabfall (Beagle-Hunde; Dosis 1.0 mg/kg) was 46 mm Hg, the “% Zunahme in dp/dt max” value (Beagle-Hunde; Dosis 0.3 mg/kg) was “+38%” and the “% Zunahme in dp/dt max” value (Beagle-Hunde; Dosis 1.0 mg/kg) was “+65%”.

Reference: EP0252482A2, “7-Acyloxy-6-aminoacyloxypolyoxylabdanes, process for their preparation and their use as medicine” (HOECHST AKTIENGESELLSCHAFT, priority 1986, dated 1988)
